Results as given in patent US20020128228A1, “Compositions and methods for the treatment of cancer” (priority 2000, published 2002).
Where two headings read alike, the source gives them in different places.

Assays:
[1] = single dose schedule, cited from earlier work
[2] = after intravenous administration; cited from earlier work

| SMILES | nausea and vomiting ([1]; dosages up to 700 mg/m^2) | nausea and vomiting ([1]; doses higher than 700 mg/m^2) | half life distribution (plasma, biexponential decline) [2] | recurrence (malignant melanoma; single treatment with thalidomide continued for one year) | metastases and adenopathy (malignant melanoma; thalidomide alone, maximum 200 mg/d, after dacarbazine was discontinued, additional 3 months) |
| --- | --- | --- | --- | --- | --- |
| Cn1nnc2c(C(N)=O)ncn2c1=O [temozolomide, 8-carbamoyl-3-methyl-imidazo-[5.1.d]-1,2,3,5-tetrazin-4(3H)-one] | mild | Grade 4 toxicity | 1.8 h |  |  |
| O=C1CCC(N2C(=O)c3ccccc3C2=O)C(=O)N1 (racemic) [thalidomide, 2-(2,6-dioxo-3-piperidinyl)-1H-isoindole-1,3(2H)-dione] |  |  |  | only recurrence in the leg | resolution of the metastases continued and virtually no adenopathy was detected |
